Measured values published in patent US8906909B2 (Curis, Inc., priority 2009, dated 2014).

Legend:
[1] = tested on: HDACs (HeLa cell nuclear extracts); assay: HDAC enzymatic activity, Biomol Color de Lys system; format: biochemical
In short: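 IC50 from sigmoidal dose-response fits of fluorescence (Ex 350–380, Em 440–460 nm). Compounds in DMSO dilution series incubated 1 h at 25 °C with HeLa nuclear extract HDACs and colorimetric substrate, pH 8.0 Tris/Cl buffer with NaCl, KCl, MgCl2, before developer termination.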

| SMILES | IC50 [1] [µM] | melting point [°C] |
| --- | --- | --- |
| CS(=O)(=O)N1CCN(Cc2cc3nc(-c4ccc(OCCCCCCC(=O)NO)cc4)nc(N4CCOCC4)c3s2)CC1 [Compound 321, N-Hydroxy-7-(4-(6-((4-(methylsulfonyl)piperazin-1-yl)methyl)-4-morpholinothieno[3,2-d]pyrimidin-2-yl)phenoxy)heptanamide] | 0.1 to 1 | 143 to 145 |
| O=C(/C=C/c1ccc(NCc2cc3nc(-c4cccc5[nH]ncc45)nc(N4CCOCC4)c3s2)cc1)NO [Compound 80, (E)-3-(4-((2-(1H-indazol-4-yl)-4-morpholinothieno[3,2-d]pyrimidin-6-yl)methylamino)phenyl)-N-hydroxyacrylamide] | 0.1 to 1 | > 300 |
| O=C(CCCCCCN1CCN(Cc2cc3nc(-c4cccc5[nH]ncc45)nc(N4CCOCC4)c3s2)CC1)NO [Compound 13, 7-(4-((2-(1H-indazol-4-yl)-4-morpholinothieno[3,2-d]pyrimidin-6-yl)methyl)piperazin-1-yl)-N-hydroxyheptanamide] | 0.1 to 1 | 119 to 122 |
| CC(C)CN(Cc1cc2nc(-c3cccc4[nH]ncc34)nc(N3CCOCC3)c2s1)c1ncc(C(=O)NO)cn1 [Compound 93, 2-(((2-(1H-indazol-4-yl)-4-morpholinothieno[3,2-d]pyrimidin-6-yl)methyl)(isobutyl)amino)-N-hydroxypyrimidine-5-carboxamide] | 0.1 to 1 | 196 to 198 |
| C[C@@H](O)c1cccc(-c2nc(N3CCOCC3)c3sc(CN(C)c4ncc(C(=O)NO)cn4)cc3n2)c1 [Compound 297, (R)—N-Hydroxy-2-(((2-(3-(1-hydroxyethyl)phenyl)-4-morpholinothieno[3,2-d]pyrimidin-6-yl)methyl)(methyl)amino)pyrimidine-5-carboxamide] | < 0.1 | 169 to 173 |
| O=C(CCCCCN1CCN(Cc2cc3nc(-c4cccc5[nH]ncc45)nc(N4CCOCC4)c3s2)CC1)NO [Compound 12, 6-(4-((2-(1H-indazol-4-yl)-4-morpholinothieno[3,2-d]pyrimidin-6-yl)methyl)piperazin-1-yl)-N-hydroxyhexanamide] | 0.1 to 1 | 123 to 124 |
| CN(CCCCC(=O)NO)Cc1cc2nc(-c3cccc4[nH]ncc34)nc(N3CCOCC3)c2s1 [Compound 102, 5-(((2-(1H-indazol-4-yl)-4-morpholinothieno[3,2-d]pyrimidin-6-yl)methyl)(methyl)amino)-N-hydroxypentanamide] | 0.1 to 1 | 120 to 122 |
| CNC(=O)c1cccc(-c2nc(N3CCOCC3)c3sc(CN(C)c4ncc(C(=O)NO)cn4)cc3n2)c1 [Compound 144, N-hydroxy-2-(methyl((2-(3-(methylcarbamoyl)phenyl)-4-morpholinothieno[3,2-d]pyrimidin-6-yl)methyl)amino)pyrimidine-5-carboxamide] | < 0.1 | 215 to 217 |
| CN(Cc1cc2nc(-c3ccc(C#N)cc3)nc(N3CCOCC3)c2s1)c1ncc(C(=O)NO)cn1 [Compound 146, 2-(((2-(4-cyanophenyl)-4-morpholinothieno[3,2-d]pyrimidin-6-yl)methyl)(methyl)amino)-N-hydroxypyrimidine-5-carboxamide] | < 0.1 | 214 to 216 |
| CN(Cc1cc2nc(-c3cncnc3)nc(N3CCOCC3)c2s1)c1ncc(C(=O)NO)cn1 [Compound 119, N-hydroxy-2-(methyl((4-morpholino-2-(pyrimidin-5-yl)thieno[3,2-d]pyrimidin-6-yl)methyl)amino)pyrimidine-5-carboxamide] | < 0.1 | 159 to 160 |
| CC(=O)c1cc(-c2nc(N3CCOCC3)c3sc(CN(C)c4ncc(C(=O)NO)cn4)cc3n2)ccc1N [Compound 281, 2-{[2-(3-Acetyl-4-amino-phenyl)-4-morpholin-4-yl-thieno[3,2-d]pyrimidin-6-ylmethyl]-methyl-amino}-pyrimidine-5-carboxylic acid hydroxyamide] | < 0.1 | 156 to 158 |
| COc1ccc(-c2nc(N3CCOCC3)c3sc(NS(=O)(=O)c4ccc(/C=C/C(=O)NO)cc4)cc3n2)cn1 [Compound 222, N-Hydroxy-3-{4-[2-(6-methoxy-pyridin-3-yl)-4-morpholin-4-yl-thieno[3,2-d]pyrimidin-6-ylsulfamoyl]-phenyl}-acrylamide] | < 0.1 | > 300 |
| CN(Cc1cc2nc(-c3cccc(CN)c3)nc(N3CCOCC3)c2s1)c1ncc(C(=O)NO)cn1 [Compound 137, 2-(((2-(3-(aminomethyl)phenyl)-4-morpholinothieno[3,2-d]pyrimidin-6-yl)methyl)(methyl)amino)-N-hydroxypyrimidine-5-carboxamide] | < 0.1 | 173 to 176 |
| CN(Cc1cc2nc(-c3ccc(S(C)(=O)=O)cc3)nc(N3CCOCC3)c2s1)c1ncc(C(=O)NO)cn1 [Compound 149, N-hydroxy-2-(methyl((2-(4-(methylsulfonyl)phenyl)-4-morpholinothieno[3,2-d]pyrimidin-6-yl)methyl)amino)pyrimidine-5-carboxamide] | < 0.1 | 206 to 208 |

Second part, the compound after the results:

| IC50 [1] [µM] | melting point [°C] | SMILES |
| --- | --- | --- |
| < 0.1 | 153 | CN(Cc1cc2nc(-c3ccc(Cl)cc3)nc(N3CCOCC3)c2s1)c1ncc(C(=O)NO)cn1 [Compound 147, 2-(((2-(4-chlorophenyl)-4-morpholinothieno[3,2-d]pyrimidin-6-yl)methyl)(methyl)amino)-N-hydroxypyrimidine-5-carboxamide] |
| < 0.1 | > 300 | CN(Cc1cc2nc(-c3ccc4[nH]c(C(F)(F)F)nc4c3)nc(N3CCOCC3)c2s1)c1ncc(C(=O)NO)cn1 [Compound 318] |
| < 0.1 | 232 to 238 | Nc1ccc(-c2nc(N3CCOCC3)c3sc(C(=O)NCC4CCN(c5ncc(C(=O)NO)cn5)CC4)cc3n2)cc1 [Compound 307, 2-(4-Aminophenyl)-N-((1-(5-(hydroxycarbamoyl)pyrimidin-2-yl)piperidin-4-yl)methyl)-4-morpholinothieno[3,2-d]pyrimidine-6-carboxamide] |
| < 0.1 | 199 to 200 | CN(Cc1cc2nc(-c3ccccc3)nc(N3CCOCC3)c2s1)c1ncc(C(=O)NO)cn1 [Compound 129, N-hydroxy-2-(methyl((4-morpholino-2-phenylthieno[3,2-d]pyrimidin-6-yl)methyl)amino)pyrimidine-5-carboxamide] |
| < 0.1 | 217 to 223 | Nc1ccc(-c2nc(N3CCOCC3)c3sc(CNc4ncc(C(=O)NO)cn4)cc3n2)cc1 [Compound 211, 2-((2-(4-aminophenyl)-4-morpholinothieno[3,2-d]pyrimidin-6-yl)methylamino)-N-hydroxypyrimidine-5-carboxamide] |
| < 0.1 | 202 to 207 | COc1ncc(-c2nc(N3CCOCC3)c3sc(C(C)(C)Nc4ncc(C(=O)NO)cn4)cc3n2)cn1 [Compound 263, N-Hydroxy-2-(2-(2-(2-methoxypyrimidin-5-yl)-4-morpholinothieno[3,2-d]pyrimidin-6-yl)propan-2-ylamino)pyrimidine-5-carboxamide] |
| < 0.1 | 208 to 210 | CN(C)c1ccc(-c2nc(N3CCOCC3)c3sc(CN(C)c4ncc(C(=O)NO)cn4)cc3n2)cc1 [Compound 152, 2-(((2-(4-(dimethylamino)phenyl)-4-morpholinothieno[3,2-d]pyrimidin-6-yl)methyl)(methyl)amino)-N-hydroxypyrimidine-5-carboxamide] |
| < 0.1 | 203 to 206 | CN(Cc1cc2nc(-c3ccc(N)c(F)c3)nc(N3CCOCC3)c2s1)c1ncc(C(=O)NO)cn1 [Compound 276, 2-(((2-(4-Amino-3-fluorophenyl)-4-morpholinothieno[3,2-d]pyrimidin-6-yl)methyl)(methyl)amino)-N-hydroxypyrimidine-5-carboxamide] |
| < 0.1 | 220 to 225 | Nc1ncc(-c2nc(N3CCOCC3)c3sc(NCCCCCC(=O)NO)cc3n2)cn1 [Compound 232, 6-[2-(2-Amino-pyrimidin-5-yl)-4-morpholin-4-yl-thieno[3,2-d]pyrimidin-6-ylamino]-hexanoic acid hydroxyamide] |
| < 0.1 | 218 to 223 | CN(Cc1cc2nc(-c3ccc(CO)cc3)nc(N3CCOCC3)c2s1)c1ncc(C(=O)NO)cn1 [Compound 140, N-hydroxy-2-(((2-(4-(hydroxymethyl)phenyl)-4-morpholinothieno[3,2-d]pyrimidin-6-yl)methyl)(methyl)amino)pyrimidine-5-carboxamide] |
| < 0.1 | 110 to 115 | CN(Cc1cc2nc(-c3ccc(OCCN)nc3)nc(N3CCOCC3)c2s1)c1ncc(C(=O)NO)cn1 [Compound 259, 2-(((2-(6-(2-Aminoethoxy)pyridin-3-yl)-4-morpholinothieno[3,2-d]pyrimidin-6-yl)methyl)(methyl)amino)-N-hydroxypyrimidine-5-carboxamide] |
| < 0.1 | 190 to 195 | CN(C)c1ccc(-c2nc(N3CCOCC3)c3sc(CN(C)c4ncc(C(=O)NO)cn4)cc3n2)cn1 [Compound 114, 2-(((2-(6-(dimethylamino)pyridin-3-yl)-4-morpholinothieno[3,2-d]pyrimidin-6-yl)methyl)(methyl)amino)-N-hydroxypyrimidine-5-carboxamide] |
| < 0.1 | 170 to 172 | Cc1ccc(-c2nc(N3CCOCC3)c3sc(CN(C)c4ncc(C(=O)NO)cn4)cc3n2)cc1 [Compound 201, N-hydroxy-2-(methyl((4-morpholino-2-p-tolylthieno[3,2-d]pyrimidin-6-yl)methyl)amino)pyrimidine-5-carboxamide] |
| < 0.1 | 153 to 156 | CCc1ncc(-c2nc(N3CCOCC3)c3sc(CN(C)c4ncc(C(=O)NO)cn4)cc3n2)cn1 [Compound 121, 2-(((2-(2-ethylpyrimidin-5-yl)-4-morpholinothieno[3,2-d]pyrimidin-6-yl)methyl)(methyl)amino)-N-hydroxypyrimidine-5-carboxamide] |
